In PMC7076669 (Pharmaceutics, 2020):
≈ marks a conversion by molar mass, not a printed value. Like-named read-outs stand apart in the source and are kept apart here.

How the values were obtained:
[1] = Visual solubility of ibuprofen in liquid excipients; format: physicochemical; conditions: for Ibuprofen Solubility in Excipient: visual solubility
Experimental: In this method, the excipients were accurately weighed (2.5 g) in individually-labelled 20 mL scintillation vials. […] Further, the vials were placed in a shaking water bath (Fisher Scientific, Waltham, MA, USA) maintained at 25 °C for at least 15 min to allow proper mixing.

[2] = cited from earlier work
[3] = in MCT 70 (medium chain triglycerides), 25 °C
[4] = in oleyl alcohol (Kollicream OA), 25 °C
[5] = in propylene glycol (Kollicream PG), 25 °C

## CC(C)Cc1ccc(C(C)C(=O)O)cc1 (stereo not drawn) [Ibuprofen, α-methyl-4-(2-methylpropyl) benzeneacetic acid]
[1]; in Kolliphor PS 80, 25 °C
  Ibuprofen solubility, Percentage: 18%
  Ibuprofen Solubility in Excipient: 180 mg/g
[1]; [3]
  Ibuprofen solubility, Percentage: 14%
  Ibuprofen Solubility in Excipient: 140 mg/g
[1]; in PEG 400, 25 °C
  Ibuprofen solubility, Percentage: 19%
  Ibuprofen Solubility in Excipient: 190 mg/g
[1]; in Transcutol, 25 °C
  Ibuprofen solubility, Percentage: 30%
  Ibuprofen Solubility in Excipient: 300 mg/g
[1]; in glycerol, 25 °C
  Ibuprofen solubility, Percentage: 0.4%
  Ibuprofen Solubility in Excipient: 4 mg/g
[1]; in isopropyl myristate, 25 °C
  Ibuprofen solubility, Percentage: 20%
  Ibuprofen Solubility in Excipient: 200 mg/g
[1]; in mineral oil, 25 °C
  Ibuprofen solubility, Percentage: 6%
  Ibuprofen Solubility in Excipient: 60 mg/g
[1]; [4]
  Ibuprofen solubility, Percentage: 18%
  Ibuprofen Solubility in Excipient: 180 mg/g
[1]; [5]
  Ibuprofen solubility, Percentage: 30%
  Ibuprofen Solubility in Excipient: 300 mg/g
[2]; pH 4.5
  aqueous solubility: 0.084 µg/mL (≈ 0.407 µM)
[2]; pH 5.54
  aqueous solubility: 0.685 µg/mL (≈ 3.32 µM)
